Tests used:
NIH/3T3 cells = test: Anoikis assay on poly-HEMA coated plates, annexin-V-FITC/PI; type: cell-based, murine; details: detached, 8 hours, p<0.05 vs parental cells
Text: Using the murine transformed fibroblast cell line, NIH/3T3, the anoikis-resistance properties of wild type htt (15 glutamine repeat) and mutant htt (138 glutamine repeat) were investigated. NIH/3T3 cells require a matrix for attachment in order to experience optimum growing conditions. When detached from the supporting matrix, they experience a high rate of apoptosis. NIH/3T3 cells were transfected with a mammalian expression vector containing wild type htt (15 glutamine repeat) or mutant htt (138 glutamine repeat). Untransfected and transfected NIH/3T3 cells were grown on cell culture plates, whose plastic surface served as a substrate for matrix deposition and subsequent cellular attachment, or on poly-HEMA coated cell culture plates. The nonionic nature of poly-HEMA inhibits both matrix deposition and subsequent cell attachment. […] The cells were cultured in DMEM with 10% serum for 8 hours under attached conditions on plastic plates or under detached conditions on poly-HEMA-coated plastic plates. Cells were harvested, counted and viability was assessed via annexin-V-FITC and propidium iodide (PI) staining.

NIH3T3 cells [1] = test: Cellular proliferation after transient transfection, colorometric assay of cell number; type: cell-based
Description: The ability of NIH3T3 cells to overcome contact inhibition when transfected with different gene constructs has been used for many years to assess oncogenic potential of certain genes and to identify potential oncogenes. Cellular proliferation was assessed following transient transfections of NIH3T3 cells using a standardised colorometric assay of cell number. The effect of htt on cellular growth was examined and compared to the effect of a known oncogene, ras (FIG. 17). NIH3T3 cells transfected with htt constructs show a significant increase in cellular proliferation (5-6 fold increase in proliferation compared to control vector) that is similar to the effect of ras.

NIH3T3 cells [2] = test: Soft agar colony formation and transformation of retrovirally transfected cells; type: cell-based
Description: Retroviral introduction of the S421 mutants into NIH3T3 cells was used to examine the oncogenic (proliferative) effects of phosphorylation on serine 421. […] To test the oncogenic potential of htt and to examine the effect of phosphorylation of htt at S421 on cell proliferation, a soft agar assay was conducted in NIH3T3 cells (FIG. 21). […] Mutant htt (HD138) transfection leads to no (0%) soft agar colonies.

[3] = Retrospective analysis of tumor development in transgenic mouse colony; type: in vivo, mice
Description: A retrospective analysis was performed to examine the total numbers of mice (identified by the animal colony health staff) that developed tumors in the colony of transgenic mice. The records of all mice diagnosed with tumors over a 6 month period were examined, in a group of mice over-expressing wild-type human htt and their wild-type littermates. […] The average age of tumor development was younger in the transgenic group 13.8 months compared to 17.1 months for wild-type littermates. The majority of identified tumors in male mice were testicular tumors.

hippocampal neurons = test: Kainic acid-induced seizure neurodegeneration in YAC transgenic mice; type: in vivo
Description: Yeast artificial chromosome (YAC) transgenic mice were generated that over-express wild-type human htt at 2-3 times the levels of endogenous htt in wild-type mice (FVB/NJ) (Hodgson et al.(1996) Hum. Mol. Genet. 5, 1875-1885). Fifteen of these transgenic and 23 control FVB/NJ mice 4-8 months of age each received a single intraperitoneal injection of 25 mg/kg kainic acid (KA) or an equal volume of vehicle (PBS). Intraperitoneal injections of kainic acid injections cause prolonged seizures in mice, and each mouse was observed continuously for two hours following injection. The occurrence, severity, and duration of seizures was recorded.
(§1) One week following KA injection, brains were removed from one group of the mice and immediately frozen in isopentene on dry ice. Serial 30 μm coronal cryostat sections were cut through the entire hippocampus. After every fifth section, two sections were removed for quantitative analysis and fixed in 3% paraformaldehyde for 30 minutes in preparation for histochemical staining. Degenerating neurons were identified in hippocampal sections by Fluoro-Jade™ histochemistry (Histo-Chem Inc.), silver staining (FD Neurotechnologies) and by TUNEL™ (Boehringer Mannheim). Fluoro-Jade™ is a fluorescent stain that labels degenerating neurons in fixed brain sections. The total number of degenerated hippocampal neurons labeled with Fluoro-Jade™ was recorded from the CA1, CA3, and total hippocampus regions of each section selected for quantitative analysis. Slide-mounted sections were viewed with a Zeiss (Axiovert) fluorescent microscope, digital photomicrographs were captured with a cooled CCD camera (Princeton), and degenerating hippocampal neurons manually counted in a blinded fashion. To assess the role of caspase activation in this process, the hippocampus and cerebellum were removed from a second group of animals 8 hours following KA-induced seizures. Caspase activity was measured in homogenized hippocampal and cerebellar samples using the fluorogenic substrate acetylated DEVD aminofluorocoumarin. DEVD-ase activity was standardized to protein content as determined by standard Lowry analysis.

[4] = Body weight of transgenic mice over-expressing wild-type htt; type: in vivo; details: transgenic mice aged 5-8 months over-expressing wild-type htt
Text: One of the roles of the pro-survival (e.g. anti-apoptotic) function of wild-type htt may be in control of tissue mass and cellular proliferation. Increased levels of wild-type htt expression can lead to increased body tissue mass and may predispose mice to the development of tumors. The effect of over-expression of human wild-type htt on the body weight of transgenic mice was compared to wild-type mice (FIG. 16). […] The average body weight was approximately 25% greater for the transgenic mice compared to wild-type. […] Over production of cells in the body can have a variety of unwanted outcomes including but not limited to obesity or cancer. This may be due to decreased naturally occurring apoptosis or increased cellular proliferation.

[5] = tested on: DEVD-ase activity (caspase-2, -3, -7); test: DEVD-ase (caspase) activity after kainic acid-induced seizures; type: in vivo, mice; details: 8 hours after KA-induced seizures
Description: as §1, with “To assess the role of caspase activation in this process, the hippocampus and cerebellum were removed from a second group of animals 8 hours following KA-induced seizures.” left out

In the case of “wild-type htt: wild-type human huntingtin protein, polyglutamine tract of less than 35 glutamines; over-expressed in YAC line 212 mice or transfected (15 glutamine repeat)”, the “protection from cell death induced by anoikis” value (NIH/3T3 cells) is reported as “Protection from cell death induced by anoikis”, the “increase in proliferation compared to control vector” value (NIH3T3 cells [1]) is reported as 5-6 fold and the soft agar colonies (NIH3T3 cells [2]; retrovirally transfected NIH3T3 cells, control cells about 5%) is reported as “about 15%”. The “increase in number of colonies over control cells” value (NIH3T3 cells [2]; soft agar, NIH3T3 cells) was 3 fold, the morphologic transformation (NIH3T3 cells [2]; stable retroviral transfection of NIH3T3 cells) was “malignant, morphologic transformation” and the “mice identified with tumors that were transgenic” value ([3]; 6 month period, 38/45) was 84.5%. For the same substance, the “average age of tumor development” value ([3]; transgenic group, wild-type littermates 17.1 months) was 13.8 months, the “average number of degenerating neurons per animal (Fluoro-Jade)” value (hippocampal neurons; CA1 region, 25 mg/kg KA i.p., one week, control 2360) was 3 and the “average number of degenerating neurons per animal (Fluoro-Jade)” value (hippocampal neurons; CA3 region, 25 mg/kg KA i.p., one week, control 2003) was 79. For the same substance, the “fold less degenerating hippocampal neurons than control animals” value (hippocampal neurons; after KA-induced seizures) was “approximately 50 fold”, the “TUNEL labeled apoptotic hippocampal neurons” value (hippocampal neurons; after KA-induced seizures, transgenic mice) was “few apoptotic hippocampal neurons” and the “argyrophyllic labelling of neuronal soma (silver staining)” value (hippocampal neurons; hippocampal sections after KA-induced seizures, transgenic vs wild-type mice) was “dramatically reduced”. The “average number of degenerating hippocampal neurons per animal (Fluoro-Jade)” value (hippocampal neurons; total hippocampus, mice expressing 2-3 times endogenous htt levels, 25 mg/kg KA i.p., one week, control 4362) was 81, the “average body weight greater than wild-type mice” value [4] was “approximately 25%” and the “cerebellar caspase activation (DEVD-ase activity)” value ([5]; cerebellum, wild-type mice 8.68 +/−1.67, no significant difference) was 13.66 +/−2.32. For the same substance, the “hippocampal caspase activation (DEVD-ase activity)” value ([5]; hippocampus, wild-type mice 20.8 +/−1.77, P=0.02) was 14.5 +/−1.49.

Source: patent publication US20040110676A1, “Methods for modulating cell survival” (priority 2000, published 2004)
